Laboratory results reported in patent US20020010158A1, “Cardioprotective phosphonates and malonates” (priority 2000, published 2002).

How the values were obtained:
Type in all cases: in vivo, rat
[1] = tested on: coronary artery ligated rats (cardiac hypertrophy); test: Cardiac hypertrophy after coronary artery ligation; settings: rats 21 days after coronary ligation, 10 mg/kg daily by gastric tube
Procedure: (§1) Myocardial infarction was produced in male Sprague-Dawley rats (300-400 g) by occlusion of the left coronary artery. The rats were housed in clear cages in a temperature (19-22° C.) and humidity (50-55% RH) controlled room on a 12 hour light-dark cycle. Food and water were supplied ad libitum. Rats were anaesthized with 1-5% isoflurane in 100% O2 (2 L/minute flow rate). The skin was incised along the left sternal border and the 4th rib was cut proximal to the sternum and a retractor was inserted. The pericardial sac was opened and the heart externalized. The left anterior descending coronary artery was ligated approximately 2 mm from its origin on the aorta using a 6-0 silk suture. The heart was then repositioned in the chest and the incision closed via purse-string sutures. Sham-operated rats underwent identical treatment except that the artery was not ligated. Mortality due to surgery was less than 1%. All animals were allowed to recover, receiving food and water ad libitum for 21 days. Hemodynamic and histological assessments were made.
(§2) Rats were divided at random into five groups: sham operated, coronary artery ligated (untreated), coronary artery ligated (pyridoxal-5′-phosphate (P5P) treatment), coronary artery ligated (compound VII treated) and coronary artery ligated (compound XI treated). Treatment with P5P, compound VII and compound XI began 1 hour after coronary occlusion (or sham operation), and continued for 21 days. P5P, compound VII or compound XI (10 mg/kg) were administered daily (9 AM) by gastric tube. This dosage was chosen based on previous experience with P5P.
Hypertrophy is a physiological condition of enlargement (increased mass) due to increased stress. Cardiac hypertrophy is assessed by calculating the heart to body mass ratio.

[2] = tested on: coronary artery ligated rats (left ventricle hemodynamics); test: Hemodynamic changes after coronary artery ligation; settings: rats 21 days after coronary ligation; 10 mg/kg daily by gastric tube; mean±SD
Procedure: as §1, with “Sham-operated rats underwent identical treatment except that the artery was not ligated. Mortality due to surgery was less than 1%. All animals were allowed to recover, receiving food and water ad libitum for 21 days. Hemodynamic and histological assessments were made.” left out
The animals prepared as described in Example 29 were anaesthetized with an injected cocktail of ketamine hydrochloirde (60 mg/kg) and xylazine (10 mg/kg). […] The catheter was secured with a silk ligature around the artery, and various hemodynamic parameters including left ventricular systolic pressure (LVSP), left ventricular end diastolic pressure (LVEDP), rate of contraction (+dP/dt), and rate of relaxation (−dP/dt), were recorded and calculated with Acknowledge 3.1 software (Biopac Systems Inc.). The animals were allowed 5-10 minutes to stabilize, after which parameters were measured as averages over three readings.

[3] = tested on: coronary artery ligated rats (myocardial infarction); test: Coronary artery ligation, mortality; settings: male Sprague-Dawley rats, 10 mg/kg daily by gastric tube from 1 hour after occlusion
Procedure: as §1, with “made. […]” for “made.”
as §2
Mortality in all groups occurred only within the first 24 h after coronary ligation. While in the untreated group 50% of the rats died, the mortality rate dropped to 17-25% in the treated groups (Table I).

Structure (SMILES) | Cardiac Hypertophy, Heart Weight/Body Weight [1] | LVSP (left ventricular systolic pressure) [2] | Mortality (%) [3] [%] | Total dead Rats [3] | Dead Rats 12 hr [3] | Dead Rats 24 hr [3] | Dead Rats 36 hr [3] | Dead Rats 48 hr [3] | Dead Rats 3 days [3]
Cc1ncc(C(F)P(=O)(O)O)c(CO)c1O (stereo not drawn) [MC-5422, (3-hydroxy-4-hydroxymethyl-2-methyl-5-pyridyl)fluoromethyl phosphonic Acid] | 0.0032 ± 0.0002 | – | – | – | – | – | – | – | –
Cc1ncc(C(O)P(=O)(O)O)c(CO)c1O (stereo not drawn) [MC-5723, (3-hydroxy-4-hydroxymethyl-2-methyl-5-pyridyl)hydroxymethyl phosphonic Acid] | 0.0031 ± 0.0004 | – | – | – | – | – | – | – | –
Cc1ncc(COP(=O)(O)O)c(C=O)c1O [P5P, pyridoxal-5′-phosphate, reference compound] | – | 120.0 ± 10.6 | 17 | 2 | 1 | 1 | 0 | 0 | 0
Cc1ncc(C(O)P(=O)(O)O)c(CO)c1O (stereo not drawn) [compound VII, (3-hydroxy-4-hydroxymethyl-2-methyl-5-pyridyl)hydroxymethyl phosphonic Acid] | significant decrease in cardiac hypertrophy | – | 21 | 3 | 2 | 1 | 0 | 0 | 0
Cc1ncc(C(F)P(=O)(O)O)c(CO)c1O (stereo not drawn) [compound XI, (3-hydroxy-4-hydroxymethyl-2-methyl-5-pyridyl)fluoromethyl phosphonic Acid] | significant decrease in cardiac hypertrophy | 115.0 ± 12.1 | 25 | 3 | 3 | 0 | 0 | 0 | 0
